Test results reported in patent US20240166693A1, “METHODS AND COMPOUNDS FOR MODULATING MYOTONIC DYSTROPY 1” (Design Therapeutics, Inc., priority 2020, published 2024).
pEC50: −log10 of the molar value.

Each compound was assayed on Myotonic Dystrophy 1 affected patient fibroblasts (Coriell GM04602; 1600 CTG repeats) (assay: DM1 foci reduction assay (CAG10-Cy3 FISH, average foci per nucleus)). Conditions: Homo sapiens, Fibroblast, 48 h, read-out: Foci Reduction in Fibroblast EC50, 48 h (nM).
Format: cell-based
Protocol: DM1 foci reduction assay methods: Myotonic Dystrophy 1 affected patient fibroblasts (Coriell GM04602; 1600 CTG repeats) and wild type fibroblasts (Coriell GM07492; control line) were cultured separately in Gibco DMEM (1×)+4.5 g/L D-Glucose+L-Glutamine+110 mg/L Sodium Pyruvate, supplemented with 10% FBS and 1× Pen/Strep. Cells were maintained in incubator at 37° C. and 5% CO2 with media refresh every 48-72 hours.
At 90-95% confluency, both cell lines were harvested using Trypl-E then pelleted at 500×g for 5 minutes and were resuspended in media. DM1 fibroblasts were seeded in Agilent 96 well black plates at a density of 5,000 cells/well in 200 μL media; 8 wells were reserved for control fibroblasts. Plates were returned to incubator for 24 hours at 37° C. and 5% CO2.
Compounds were diluted from 10 mM stock to 1 mM in DMSO, then diluted once more to 6 μM (2× concentration) in media. Media was removed from all plates and cells were replenished with 100 μL media. Cells were treated in 8-point dose response, 1:3 fold dilution, 3 μM top dose via addition of 100 μL of 6 μM (2× concentration) compound to the 100 μL media with cells. Plates were returned to incubator for 48-hour time-course experiment at 37° C. and 5% CO2.
Following treatment, compounds were removed, and plates were washed with PBS, then cells were fixed in 75 μL 4% PFA solution for 20 minutes at room temperature. Plates were washed twice with PBS and twice with cold 70% ethanol before permeabilization with 250 μL cold 70% ethanol for 24-72 hours at −20° C.
After permeabilization, plates were washed once with a 30% formamide and 2×SSC buffer and rehydrated in that buffer for 15 minutes at room temperature. Cells were incubated overnight at 37° C. in 75 μL of a hybridization solution containing 30% formamide, 2×SSC, 25 mg/mL dextran sulfate, 2.5 mg/mL BSA, 0.2 μg/mL Herring sperm DNA, 2 mM vanadyl-ribonucleoside complex, and 5 nM CAG10-Cy3 probe.
Plates were washed once with 30% formamide in 2×SSC buffer, then twice with the buffer for 30 minutes at 37° C., 300 RPM in an incubating plate shaker. Cells were stained with 75 μL of 2.5 μg/mL DAPI in PBS for 5 minutes at room temperature. Plates were then washed twice with PBS and stored in 250 μL PBS. Plates were sealed with adhesive foil and wiped down with 70% ethanol.
Cells were imaged on a Cytation5 with a 20× objective sampling from 4 areas of each well. Nuclei were captured under DAPI channel and foci under RFP channel. Plates were analyzed on an average foci per nucleus per well basis.

CCN(CC)CCCC[C@H](NC(=O)[C@H](CC(C)C)NC(=O)[C@H](C)NC(=O)[C@H](Cc1ccccc1)NC(=O)c1ccc(C(C)(C)C)cc1)C(=O)N[C@@H](CO)C(=O)N(C)CCOCCOCCN(C)C(=O)CCNC(=O)c1nc(NC(=O)c2cc(NC(=O)CCNC(=O)c3nc(NC(=O)CCCNC(=O)c4cc(NC(=O)c5nc(NC(=O)CCNC(=O)c6cc(NC(=O)c7nccn7C)cn6C)cn5C)cn4C)cn3C)cn2C)cn1C [Compound 76] and CCN(CC)CCCC[C@H](NC(=O)[C@H](CC(C)C)NC(=O)[C@H](C)NC(=O)[C@H](Cc1ccccc1)NC(=O)c1ccc(C(C)(C)C)cc1)C(=O)N[C@@H](CO)C(=O)NCCOCCOCCOCCNC(=O)CCNC(=O)c1nc(NC(=O)c2cc(NC(=O)CCNC(=O)c3nc(NC(=O)CCCNC(=O)c4cc(NC(=O)c5nc(NC(=O)CCNC(=O)c6cc(NC(=O)c7nccn7C)cn6C)cn5C)cn4C)cn3C)cn2C)cn1C [Compound 73] cannot be ordered by EC50: under 100 nM for the first, under 100 nM for the second.

CCN(CC)CCCC[C@H](NC(C)=O)C(=O)N[C@@H](CO)C(=O)NCCOCCOCCOCCOCCOCCNC(=O)CCNC(=O)c1nc(NC(=O)c2cc(NC(=O)CCCC(=O)c3nc(NC(=O)CCCNC(=O)c4cc(NC(=O)c5nc(NC(=O)CCNC(=O)c6cc(NC(=O)c7nccn7C)cn6C)cn5C)cn4C)cn3C)cn2C)cn1C [Compound 65] and CCN(CC)CCCC[C@H](NC(=O)CCCCNC(=O)c1cnn(-c2ccc(C(C)(C)C)cc2)c1)C(=O)N[C@@H](CO)C(=O)NCCOCCOCCOCCOCCOCCNC(=O)CCNC(=O)c1nc(NC(=O)c2cc(NC(=O)CCNC(=O)c3nc(NC(=O)CCCNC(=O)c4cc(NC(=O)c5nc(NC(=O)CCNC(=O)c6cc(NC(=O)c7nccn7C)cn6C)cn5C)cn4C)cn3C)cn2C)cn1C [Compound 151] cannot be ordered by EC50: over 500 nM for the first, over 500 nM for the second.

Compared with CCN(CC)CCCC[C@H](NC(=O)[C@H](CC(C)C)NC(=O)[C@H](C)NC(=O)[C@H](Cc1ccccc1)NC(=O)c1ccc(C(C)(C)C)cc1)C(=O)N[C@@H](CO)C(=O)Nc1ccc(OCCOCCOCCOCCOCCNC(=O)CCNC(=O)c2nc(NC(=O)c3cc(NC(=O)CCNC(=O)c4nc(NC(=O)CCCNC(=O)c5cc(NC(=O)c6nc(NC(=O)CCNC(=O)c7cc(NC(=O)c8nccn8C)cn7C)cn6C)cn5C)cn4C)cn3C)cn2C)cc1 [Compound 177], CCN(CC)CCCC[C@H](NC(=O)[C@H](CC(C)C)NC(=O)[C@H](C)NC(=O)[C@H](Cc1ccccc1)NC(=O)c1ccc(C(C)(C)C)cc1)C(=O)N[C@@H](CO)C(=O)NCCOCCOCCOCCOCCOCCNC(=O)CCNC(=O)c1cc(NC(=O)c2nc(NC(=O)CCNC(=O)c3nc(NC(=O)CCCNC(=O)c4cc(NC(=O)c5nc(NC(=O)c6cc(NC(=O)CCNC(=O)c7nccn7C)cn6C)cn5C)cn4C)cn3C)cn2C)cn1C [Compound 285] is higher in EC50: under 100 nM for the first, over 500 nM for the second. The first is the more potent here.

CCN(CC)CCCC[C@H](NC(=O)[C@H](CC(C)C)NC(=O)[C@H](C)NC(=O)[C@H](Cc1ccccc1)NC(=O)c1ccccc1C)C(=O)N[C@@H](CO)C(=O)NCCOCCOCCOCCOCCOCCNC(=O)CCNC(=O)c1nc(NC(=O)c2cc(NC(=O)CCNC(=O)c3nc(NC(=O)CCCNC(=O)c4cc(NC(=O)c5nc(NC(=O)CCNC(=O)c6cc(NC(=O)c7nccn7C)cn6C)cn5C)cn4C)cn3C)cn2C)cn1C [Compound 86] and CCN(CC)CCCC[C@H](NC(=O)[C@H](CC(C)C)NC(=O)[C@H](C)NC(=O)[C@H](Cc1ccccc1)NC(=O)c1ccc(C(C)(C)C)cc1)C(=O)N[C@@H](CO)C(=O)NCCNC(=O)CCNC(=O)c1nc(NC(=O)c2cc(NC(=O)CCNC(=O)c3nc(NC(=O)CCCNC(=O)c4cc(NC(=O)c5nc(NC(=O)CCNC(=O)c6cc(NC(=O)c7nccn7C)cn6C)cn5C)cn4C)cn3C)cn2C)cn1C [Compound 70] cannot be ordered by EC50: under 100 nM for the first, under 100 nM for the second.

Compared with CN(CCCC[C@H](NC(=O)[C@H](CCCN1CCOCC1)NC(=O)[C@@H](NC(=O)[C@H](Cc1ccccc1)NC(=O)c1ccc(C(C)(C)C)cc1)C1CCC1)C(=O)N[C@@H](CO)C(=O)NCCOCCOCCOCCOCCOCCNC(=O)CCNC(=O)c1nc(NC(=O)c2cc(NC(=O)CCNC(=O)c3nc(NC(=O)CCCNC(=O)c4cc(NC(=O)c5nc(NC(=O)CCNC(=O)c6cc(NC(=O)c7nccn7C)cn6C)cn5C)cn4C)cn3C)cn2C)cn1C)C1CC2CCC1C2 (some centres unmarked) [Compound 149], CC(C)CN(CCCC[C@H](NC(=O)[C@H](CCCN1CCOCC1)NC(=O)[C@@H](NC(=O)[C@H](Cc1ccccc1)NC(=O)c1ccc(C(C)(C)C)cc1)C1CCC1)C(=O)N[C@@H](CO)C(=O)NCCOCCOCCOCCOCCOCCNC(=O)CCNC(=O)c1nc(NC(=O)c2cc(NC(=O)CCNC(=O)c3nc(NC(=O)CCCNC(=O)c4cc(NC(=O)c5nc(NC(=O)CCNC(=O)c6cc(NC(=O)c7nccn7C)cn6C)cn5C)cn4C)cn3C)cn2C)cn1C)C1CC2CCC1C2 (some centres unmarked) [Compound 148] is higher in EC50: 100 to 500 nM for the first, over 500 nM for the second. The first is the more potent here.

CCCNC(=O)c1cc(NC(=O)c2nc(NC(=O)CCNC(=O)c3cc(NC(=O)c4nc(NC(=O)[C@@H](CCNC(=O)c5cc(NC(=O)c6nc(NC(=O)CCNC(=O)c7cc(NC(=O)c8nccn8C)cn7C)cn6C)cn5C)NC(=O)COCCOCCOCCOCCOCCNC(=O)[C@H](CO)NC(=O)[C@H](CCCCN(CC)CC)NC(=O)[C@H](CC(C)C)NC(=O)[C@H](C)NC(=O)[C@H](Cc5ccccc5)NC(=O)c5ccc(C(C)(C)C)cc5)cn4C)cn3C)cn2C)cn1C [Compound 133] and CCN(CC)CCCC[C@H](NC(=O)CCCCOCCOCCNC(=O)c1ccc(C(C)(C)C)cc1)C(=O)N[C@@H](CO)C(=O)NCCOCCOCCOCCOCCOCCNC(=O)CCNC(=O)c1nc(NC(=O)c2cc(NC(=O)CCNC(=O)c3nc(NC(=O)CCCNC(=O)c4cc(NC(=O)c5nc(NC(=O)CCNC(=O)c6cc(NC(=O)c7nccn7C)cn6C)cn5C)cn4C)cn3C)cn2C)cn1C [Compound 141] fall in the same range of EC50: 100 to 500 nM for the first, 100 to 500 nM for the second.

Same assay, conditions: Homo sapiens, Fibroblast; DM1 fibroblasts, 48 h treatment, 8-point dose response, 3 μM top dose; read-out: Foci Reduction in Fibroblast EC50, 48 h

Compared with Cn1cc(NC(=O)c2nc(NC(=O)CCNC(=O)c3cc(NC(=O)c4nccn4C)cn3C)cn2C)cc1C(=O)NCCCC(=O)Nc1cn(C)c(C(=O)NCCC(=O)Nc2cc(C(=O)Nc3cn(C)c(C(=O)NCCC(=O)NCCOCCOCCOCCOCCOCCNC(=O)c4ccc(-c5cnc(NCc6ccco6)n6cnnc56)cc4)n3)n(C)c2)n1 [Compound 60], CC(=O)c1cc(-c2ccccc2S(C)(=O)=O)c2cc(OCCOCCOCCOCCOCCOCCNC(=O)CCNC(=O)c3nc(NC(=O)c4cc(NC(=O)CCNC(=O)c5nc(NC(=O)CCCNC(=O)c6cc(NC(=O)c7nc(NC(=O)CCNC(=O)c8cc(NC(=O)c9nccn9C)cn8C)cn7C)cn6C)cn5C)cn4C)cn3C)ccn12 [Compound 169] is lower in pEC50: 6.30 to 7.00 for the first, under 6.30 for the second. The first is the more potent here.

COc1c(OCCOCCOCCOCCOCCOCCNC(=O)CCNC(=O)c2nc(NC(=O)c3cc(NC(=O)CCNC(=O)c4nc(NC(=O)CCCNC(=O)c5cc(NC(=O)c6nc(NC(=O)CCNC(=O)c7cc(NC(=O)c8nccn8C)cn7C)cn6C)cn5C)cn4C)cn3C)cn2C)cccc1C(=O)N1CCN(C(=O)COc2ccc(NC(N)=O)c(C)c2)CC1 [Compound 95] and COc1cccc(C(=O)N2CCN(C(=O)CN(C(=O)COCCOCCOCCOCCOCCNC(=O)CCNC(=O)c3nc(NC(=O)c4cc(NC(=O)CCNC(=O)c5nc(NC(=O)CCCNC(=O)c6cc(NC(=O)c7nc(NC(=O)CCNC(=O)c8cc(NC(=O)c9nccn9C)cn8C)cn7C)cn6C)cn5C)cn4C)cn3C)c3ccc(NC(N)=O)c(C)c3)CC2)c1OC [Compound 143] cannot be ordered by pEC50: under 6.30 for the first, under 6.30 for the second.

First: CCN(CC)CCCCCC(=O)NCC(=O)NCCOCCOCCOCCOCCOCCNC(=O)CCNC(=O)c1nc(NC(=O)c2cc(NC(=O)CCNC(=O)c3nc(NC(=O)CCCNC(=O)c4cc(NC(=O)c5nc(NC(=O)CCNC(=O)c6cc(NC(=O)c7nccn7C)cn6C)cn5C)cn4C)cn3C)cn2C)cn1C [Compound 158]
Second: COc1cccc(C(=O)N2CCN(C(=O)CN(CCOCCOCCOCCOCCOCCNC(=O)CCNC(=O)c3nc(NC(=O)c4cc(NC(=O)CCNC(=O)c5nc(NC(=O)CCCNC(=O)c6cc(NC(=O)c7nc(NC(=O)CCNC(=O)c8cc(NC(=O)c9nccn9C)cn8C)cn7C)cn6C)cn5C)cn4C)cn3C)c3cccc(C)c3)CC2)c1OC [Compound 142]
The pEC50 of the first is lower: under 6.30 for the first, 6.30 to 7.00 for the second. The second is the more potent here.

CCCCN(Cc1ccc(C(=O)NO)cc1)C(=O)Nc1ccc(OCc2cn(CCOCCOCCOCCOCCOCCOCCNC(=O)CCNC(=O)c3nc(NC(=O)c4cc(NC(=O)CCNC(=O)c5nc(NC(=O)CCCNC(=O)c6cc(NC(=O)c7nc(NC(=O)CCNC(=O)c8cc(NC(=O)c9nccn9C)cn8C)cn7C)cn6C)cn5C)cn4C)cn3C)nn2)cc1 [Compound 128] and CCCCN(Cc1ccc(C(=O)NO)cc1)C(=O)Nc1ccc(OCc2cn(CCOCCOCCNC(=O)CCNC(=O)c3nc(NC(=O)c4cc(NC(=O)CCNC(=O)c5nc(NC(=O)CCCNC(=O)c6cc(NC(=O)c7nc(NC(=O)CCNC(=O)c8cc(NC(=O)c9nccn9C)cn8C)cn7C)cn6C)cn5C)cn4C)cn3C)nn2)cc1 [Compound 127] cannot be ordered by pEC50: under 6.30 for the first, under 6.30 for the second.
